Source: patent publication US20120083522A1, “MODULATION OF INFLAMMATORY RESPONSES BY FACTOR XI” (Isis Pharmaceuitcals, inc., priority 2009, published 2012)
In the oligonucleotide strings, read from the 5' end, every base follows the letter of its sugar. An asterisk marks phosphorothioate; unmarked linkages are phosphodiester. Other units and linkages are bracketed, terminal groups are in braces. A string of capitals states the bases alone. e = 2'-O-(2-methoxyethyl) (MOE); [5mC] = 5-methylcytosine; d = 2'-deoxy (DNA)

Tests used:
[1] = tested on: DSS-induced colitis model; assay: Colitis Study A: DSS-induced colitis, body weight and colon length (Example 12); type: in vivo, Swiss Webb mice
Procedure: The effect of antisense oligonucleotide inhibition of Factor XI and its role in ameliorating colitis was evaluated in a dextran sulfate sodium (DSS)-induced colitis model. Administration of DSS to animals is a well known method to induce […] and has been previously described by Okayasu et al. (Gastroenterology, 1990, 98:694-702), Cooper et al. (Lab Invest, 1993, 69:238-249) and Dieleman et al. (Clin Exp Immunol, 1998, 114:385-391).
In groups of 8 Swiss Webb mice, 20 mg/kg of ISIS 404071 or ISIS 403102 were injected subcutaneously twice a week for 3 weeks. Two control groups of 8 mice each were injected with PBS twice a week for 3 weeks. After the oligonucleotide treatments, 4% DSS in water was administered ad libitum for 6 days to the experimental groups and one PBS control group.
Mice in all groups were weighed at day 0. Mice were sacrificed at the end of the study on day 7 after DSS was administered and their body weights and colon lengths were measured. Results are presented in Table 24 (expressed as a percentage of the PBS control) and FIG. 7.
Colon length was assessed in the DSS-induced colitis mice.

[2] = tested on: DSS-induced colitis model; assay: Colitis Study A: colon tissue histopathology; details: FIG. 8, listed as Factor VII ASO
[3] = tested on: collagen-induced arthritis (CIA) model; assay: Arthritis Study A: collagen-induced arthritis (Example 11); type: in vivo, DBA/1J mice; details: DBA/1J mice, 20 mg/kg s.c. twice a week for 12 weeks
Procedure: The effect of inhibition of Factor XI and its role in fibrin accumulation in the joints leading to joint inflammation and rheumatoid arthritis was evaluated in a murine collagen-induced arthritis (CIA) model. […] Arthritis induced in mice administered collagen can be visually assessed and clinically scored as described by Marty et al. (J Clin Invest, 107:631-640, 2001) where 1 point is given for each swollen digit except the thumb (maximum, 4), 1 point is given for the tarsal or carpal joint, and 1 point is given for the metatarsal or metacarpal joint with a maximum score of […]. Each paw was graded individually, the cumulative clinical arthritic score per mouse reaching a maximum of 22 points
In a group of 15 DBA/1J mice, 20 mg/kg of ISIS 404071 was injected subcutaneously twice a week for 12 weeks. One control group of 15 mice was injected with 20 mg/kg of ISIS 403102 twice a week for 12 weeks. Two control groups of 15 mice each were injected with PBS twice a week for 12 weeks. Two weeks after the first oligonucleotide dose, type II bovine collagen (Chondrex Inc, Redmond, Wash.) was mixed with complete Freund's adjuvant, homogenized on ice and the emulsion, containing 100 μg of collagen, was injected subcutaneously at the base of the tail in the Factor XI group, the Factor VII group and one of the PBS control groups. A booster injection containing 100 μg collagen type II in incomplete Freund's adjuvant was injected subcutaneously at the base of the tail at a different injection site on day 21 after the first collagen injection in these groups.
Starting 35 days from the first collagen injection, mice in all groups were examined daily for the visual appearance of arthritis, such as swelling and stiffness, in peripheral joints. The results are presented in Table 20 (expressed as a percentage of the PBS control) and in FIGS. 1-3.
‘Incidence of CIA’ refers to the percentage of mice in each group that had CIA at day 40. The ‘percentage of paws affected’ refers to the percentage of paws out of a total of 60 paws in each group of mice that were affected with arthritis. ‘Average number of affected paws’ refers to the number of affected paws in mice that were diagnosed to have arthritis. The ‘clinical severity of CIA’ was scored as described by Marty et al. (J Clin Invest, 107:631-640, 2001) and as follows: 1 point for each swollen digit except the thumb (maximum, 4), 1 point for the tarsal or carpal joint, and 1 point for the metatarsal or metacarpal joint with a maximum score of 6 for a hindpaw and 5 for a forepaw. Each paw was graded individually, the cumulative clinical arthritic score per mouse reaching a maximum of 22 points.

[4] = Tolerability in CD1 mice: liver function (Example 21); type: in vivo; design: Albumin: unit not given here; details: plasma, 50 mg/kg s.c. twice per week for 6 weeks
[5] = Tolerability in Sprague-Dawley rats: body and organ weights (Example 23); type: in vivo; details: 50 mg/kg s.c. twice per week for 6 weeks; for Body weight: increase over PBS control weight before start of treatment; for Kidney weight / Liver weight / Spleen weight: percentage of the body weight
[6] = Tolerability in Sprague-Dawley rats: kidney function (Example 23); type: in vivo; details: for BUN: plasma; for Total urine protein / Urine protein/creatinine ratio: total urine samples
[7] = Tolerability in CD1 mice: hematology assays (Example 21); type: in vivo; details: 50 mg/kg s.c. twice per week for 6 weeks
[8] = Tolerability in Sprague-Dawley rats: hematology assays (Example 23); type: in vivo; design: RBC / WBC / Neutrophil / Lymphocyte / Platelets: unit not given here; details: blood
[9] = Tolerability in Sprague-Dawley rats: liver function (Example 23); type: in vivo; design: Albumin: unit not given here; details: plasma, 50 mg/kg s.c. twice per week for 6 weeks
[10] = Tolerability in CD1 mice: body and organ weights (Example 21); type: in vivo; details: 50 mg/kg s.c. twice per week for 6 weeks; for Body weight: increase over PBS control weight before start of treatment; for Kidney weight / Liver weight / Spleen weight: percentage of the body weight
Procedure: Body weight was measured at the onset of the study and subsequently twice per week. The body weights of the mice are presented in Table 87 and are expressed increase in grams over the PBS control weight taken before the start of treatment. Liver, spleen, and kidney weights were measured at the end of the study, and are also presented in Table 87 as percentage of the body weight.

[11] = Tolerability in CD1 mice: kidney function (Example 21); type: in vivo; details: plasma, 50 mg/kg s.c. twice per week for 6 weeks
[12] = DSS-induced colitis, day 7, 20 mg/kg s.c. twice a week for 3 weeks, expressed as a percentage of the PBS control

CCATAGAACAGCTTCACAGG (e[5mC]*e[5mC]*eA*eT*eA*dG*dA*dA*d[5mC]*dA*dG*d[5mC]*dT*dT*d[5mC]*eA*e[5mC]*eA*eG*eG) [ISIS 403102, 5-10-5 MOE gapmer targeting murine Factor VII, reference compound]
body weight (in words) ([1]; Colitis Study A, FIG. 7A/7B): had a decrease in body weight | colon length (in words) ([1]; Colitis Study A, FIG. 7C): had a decrease in colon length | Body weight change [1, 12]: −7% | Colon length change [1, 12]: −34% | colon histology, lesions (in words) [2]: shows the same histology as the DSS control | Average no. of paws affected ([3]; in mice diagnosed with arthritis): 1 | % of paws affected ([3]; out of 60 paws per group): 19% | % of CIA ([3]; percentage of mice in group with CIA at day 40): 54% | Clinical severity of CIA ([3]; score of Marty et al., maximum 22 points): 4

GGACGGCATTGGTGCACAGT (antisense; all C 5-methyl, all phosphorothioate, sugars by position not given here; MOE gapmer, 5-10-5) [ISIS 413482, 5-10-5 MOE gapmer]
ALT [4]: 54 IU/L | AST [4]: 77 IU/L | Albumin [4]: 3.0 | Bilirubin [4]: 0.24 mg/dL | Cholesterol [4]: 138 mg/dL | Body weight [5]: 158 g | Kidney weight [5]: 1.0% | Liver weight [5]: 5% | Spleen weight [5]: 0.6% | creatinine [6]: 34 mg/dL | BUN [6]: 23 mg/dL | Total urine protein [6]: 157 mg/dL | Urine protein/creatinine ratio [6]: 4.8 | HCT [7]: 50% | Hemoglobin [7]: 15 g/dL | Lymphocyte [7]: 5584 cells/μL | Monocytes [7]: 275 cells/μL | Neutrophil [7]: 1958 cells/μL | Platelets [7]: 818 10^3/μL | RBC [7]: 10 10^6/μL | WBC [7]: 8 10^3/μL | HCT [8]: 40% | Hemoglobin [8]: 13.2 g/dL | Lymphocyte [8]: 11430 | Neutrophil [8]: 1125 | Platelets [8]: 641 | RBC [8]: 7.1 | WBC [8]: 13 | ALT [9]: 59 IU/L | AST [9]: 157 IU/L | Albumin [9]: 4 | Bilirubin [9]: 0.14 mg/dL | Body weight [10]: 11 g | Kidney weight [10]: 1.6% | Liver weight [10]: 6% | Spleen weight [10]: 0.5% | BUN [11]: 27 mg/dL

GGTGCACAGTTTCTGGCAGG (all C 5-methyl, all phosphorothioate, sugars by position not given here; MOE gapmer) [ISIS 413481, 5-10-5 MOE gapmer]
ALT [4]: 85 IU/L | AST [4]: 143 IU/L | Albumin [4]: 3.2 | Bilirubin [4]: 0.18 mg/dL | Cholesterol [4]: 153 mg/dL | Body weight [5]: 147 g | Kidney weight [5]: 0.9% | Liver weight [5]: 5% | Spleen weight [5]: 0.3% | creatinine [6]: 45 mg/dL | BUN [6]: 26 mg/dL | Total urine protein [6]: 148 mg/dL | Urine protein/creatinine ratio [6]: 3.6 | HCT [7]: 45% | Hemoglobin [7]: 13 g/dL | Lymphocyte [7]: 4329 cells/μL | Monocytes [7]: 204 cells/μL | Neutrophil [7]: 1904 cells/μL | Platelets [7]: 841 10^3/μL | RBC [7]: 9 10^6/μL | WBC [7]: 7 10^3/μL | HCT [8]: 43% | Hemoglobin [8]: 14.2 g/dL | Lymphocyte [8]: 12707 | Neutrophil [8]: 1046 | Platelets [8]: 552 | RBC [8]: 7.5 | WBC [8]: 14 | ALT [9]: 54 IU/L | AST [9]: 80 IU/L | Albumin [9]: 4 | Bilirubin [9]: 0.22 mg/dL | Body weight [10]: 9 g | Kidney weight [10]: 1.5% | Liver weight [10]: 6% | Spleen weight [10]: 0.5% | BUN [11]: 23 mg/dL
